# Source: article PMC3413639 (PLoS ONE, 2012)
# Where “and” joins values, the source holds several entries; their conditions need not be identical. Identical values can stand only once. Like-named read-outs stand apart in the source and are kept apart here.
# Tests used:
# 5-HT1A receptors [1] = biological target: T1, 5-HT1A receptors (Rattus norvegicus, UniProt P19327); test: [11C]WAY-100635-PET of rats treated with 5,7-DHT, a toxicant for 5-HT neurons; settings: 30 mg/kg oral
# T1 sequence (P19327 1-422): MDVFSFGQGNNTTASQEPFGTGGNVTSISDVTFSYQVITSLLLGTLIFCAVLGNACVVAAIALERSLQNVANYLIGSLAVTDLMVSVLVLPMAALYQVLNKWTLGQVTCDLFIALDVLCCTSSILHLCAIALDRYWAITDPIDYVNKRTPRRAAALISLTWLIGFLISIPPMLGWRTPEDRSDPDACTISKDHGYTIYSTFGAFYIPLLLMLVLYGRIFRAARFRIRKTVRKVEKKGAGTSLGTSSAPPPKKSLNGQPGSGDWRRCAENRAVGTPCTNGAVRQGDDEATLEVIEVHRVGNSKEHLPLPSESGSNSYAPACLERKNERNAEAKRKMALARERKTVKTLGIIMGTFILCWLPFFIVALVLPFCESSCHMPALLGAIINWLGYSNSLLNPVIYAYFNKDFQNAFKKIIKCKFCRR
# 5-HT1A receptors [2] = biological target: T1, 5-HT1A receptors; test: In vitro ARG, inhibition of [11C]WAY-100635 binding in rat brain sections; set-up: Twenty-micrometer-thick frozen brain sections were preincubated; from tissue; host or cells: rat brain (hippocampus and raphe nucleus): frozen sections or living animals; settings: for Ki: 0.9 nM [11C]WAY-100635
# Description: Rats were sacrificed by decapitation. Twenty-micrometer-thick frozen brain sections were preincubated for 30 min in 50 mM Tris-HCl (pH 7.4) containing 1 mM MnCl2. […] Subsequently, the sections were rinsed twice with ice-cold Tris-HCl buffer for 5 min and then desalted with ice-cold distilled water for 10 sec. These samples were warmly blow-dried and placed in contact with an imaging plate (Fuji Film, Tokyo, Japan) for 60 min. Signals on the imaging plate were detected by BAS5000 system (Fuji Film).
# 5-HT1A receptors [3] = biological target: T1, 5-HT1A receptors; test: Autoradiographic [35S]GTPγS binding in rat brain sections; assay type: biochemical; set-up: Twenty-micrometer-thick frozen brain sections were preincubated; from tissue; host or cells: rat brain (hippocampus and raphe nucleus): frozen sections or living animals; settings: raphe nucleus; 10 µM; p<0.01; increment smaller than that by 8-OH-DPAT
# Description: Autoradiographic procedures were performed as described previously, with some modifications. The sections were preincubated for 15 min in 50 mM 4-(2-hydroxyethyl)-1-piperazineethanesulfonic acid (HEPES; pH 7.4) containing 10 mM NaCl, 3 mM MgCl2 and 0.2 mM ethylene glycol tetraacetic acid. A second preincubation using the same buffer containing 2 mM GDP was performed for 15 min. The sections were subsequently incubated in the same buffer containing 2 mM GDP, 0.2 mM dithiothreitol and 0.04 nM [^35S]GTPγS for 120 min. Basal [^35S]GTPγS binding was defined in the absence of test drugs. […] Nonspecific binding was estimated using 10 µM nonradioactive GTPγS. The incubation was terminated by ice-cold 50 mM HEPES (pH 7.0). The sections were desalted with ice-cold distilled water, dried, and placed in contact with an imaging plate for 2 days. Signal detection and image analysis were performed as described above.
# 5-HT1A receptors [4] = biological target: T1, 5-HT1A receptors; test: [18F]MPPF PET, BPND and 5-HT1A receptor occupancy; assay type: in vivo; set-up: Rats were sacrificed by decapitation; Twenty-micrometer-thick frozen brain sections were preincubated; from tissue; host or cells: rat brain (hippocampus and raphe nucleus): frozen sections or living animals; settings: mean ± S.E.; for receptor occupancy at 30 mg/kg: rat
# [5] = Brain-to-plasma ratio of Wf-516; assay type: in vivo; settings: at the time of reaching maximal plasma concentration, unpublished data
# 5-HTTs = tested on: 5-HTTs; set-up: method as in PMID 19236731; settings: cited from earlier work
# 5-HT1A receptors [6] = biological target: T1, 5-HT1A receptors; test: [11C]WAY-100635-PET, BPND and 5-HT1A receptor occupancy; assay type: in vivo; set-up: Twenty-micrometer-thick frozen brain sections were preincubated; from tissue; host or cells: rat brain (hippocampus and raphe nucleus): frozen sections or living animals; settings: for BPND Hippocampus / BPND Raphe: [11C]WAY-100635, about 5 h before scan, mean ± S.E.; for receptor occupancy at 1 mg/kg / receptor occupancy at 3 mg/kg / receptor occupancy at 10 mg/kg / receptor occupancy at 30 mg/kg / receptor occupancy at 100 mg/kg: rat
# Description: All PET scans were carried out using a microPET Focus 220 scanner (Siemens Medical Solutions USA, Knoxville, TN). The rats were anesthetized with 1.5–2% isoflurane in air (2 L/min flow rate). […] All list-mode data were stored into 3D sinograms, which were then Fourier-rebinned into 2D sinograms (26 frames: 4×1, 8×2, and 14×5 min). Images were reconstructed using 2D-filtered back-projection with a 0.5-mm Hanning filter. All PET images were manually coregistered to the MRI template by spatial translation and rotation of original PET images without geometric expansion and contraction. ROIs were placed on the hippocampus and raphe nucleus using PMOD® image analysis software (PMOD Group, Zurich, Switzerland) with reference to the MRI template. Fine-tuning of the location of ROIs was then performed based on PET images at an early phase (0–30 min) of the scan in order to compensate for small mismatches between coregistered PET and MR images. The cerebellum was used as reference tissue because of its negligible density of 5-HT1A receptors.
# [7] = po, read-out: Occupancy (%) Hippocampus
# [8] = po, read-out: Occupancy (%) Raphe
compound,measurement,setting,value
"Cc1nnc(-c2cc3c(OC[C@@H](O)CN4CCC(c5ccc(Cl)c(Cl)c5)CC4)cccc3o2)o1.Cl [Wf-516, (2S)-1-[4-(3,4-dichlorophenyl)piperidin-1-yl]-3-[2-(5-methyl-1,3,4-oxadiazol-2-yl)benzo[b]furan-4-yloxy]propan-2-ol monohydrochloride]","Change of BPND in 5,7-DHT-treated rats","5-HT1A receptors [1]; hippocampus, compared with baseline",significant decrease of BPND
same,"Change of BPND in 5,7-DHT-treated rats",5-HT1A receptors [1]; raphe nucleus,no additional reduction of BPND
same,Blockage of 5-HT1A receptors by excess amounts of drug,"5-HT1A receptors [2]; hippocampus and raphe nucleus, up to 1000 nM",near-complete blockage
same,Ki,5-HT1A receptors [2]; hippocampus,8.1 nM
same,Ki,5-HT1A receptors [2]; raphe nucleus,7.9 nM
same,[35S]GTPγS binding compared with 1 µM WAY-100635,5-HT1A receptors [3],significantly increased
same,BPND Hippocampus,5-HT1A receptors [4]; 30 mg/kg,1.100±0.015
same,BPND Raphe,5-HT1A receptors [4]; 30 mg/kg,0.227±0.027
same,receptor occupancy at 30 mg/kg,5-HT1A receptors [4]; read-out: Occupancy (%) Hippocampus,23.3 ± 1.5%
same,receptor occupancy at 30 mg/kg,5-HT1A receptors [4]; read-out: Occupancy (%) Raphe,45.7 ± 6.5%
same,Kp,[5],~2
same,ED50 for blockade of 5-HTTs,5-HTTs; previous PET study,3 mg/kg
same,Occupancy of 5-HTT among regions,5-HTTs; previous observation,homogenous among regions
same,BPND Hippocampus,5-HT1A receptors [6]; 1 mg/kg oral,5.612±0.356
same,BPND Raphe,5-HT1A receptors [6]; 1 mg/kg oral,2.128±0.109
same,BPND Hippocampus,5-HT1A receptors [6]; 3 mg/kg oral,5.589±0.410
same,BPND Raphe,5-HT1A receptors [6]; 3 mg/kg oral,2.024±0.097
same,BPND Hippocampus,5-HT1A receptors [6]; 10 mg/kg oral,4.937±0.550
same,BPND Raphe,5-HT1A receptors [6]; 10 mg/kg oral,1.620±0.126
same,BPND Hippocampus,5-HT1A receptors [6]; 30 mg/kg oral,4.836±0.441
same,BPND Raphe,5-HT1A receptors [6]; 30 mg/kg oral,1.271±0.194
same,BPND Hippocampus,5-HT1A receptors [6]; 100 mg/kg oral,4.962±0.400
same,BPND Raphe,5-HT1A receptors [6]; 100 mg/kg oral,1.212±0.073
same,Difference in maximal occupancy between hippocampus and raphe nucleus,"5-HT1A receptors [6]; oral, PET regression curves",more than 2.5 fold
same,Maximal occupancy as calculated by the regression curve,"5-HT1A receptors [6]; raphe nucleus, oral, PET",53.8% and ~50%
same,receptor occupancy at 1 mg/kg,5-HT1A receptors [6]; [7],7 ± 2.7%
same,receptor occupancy at 3 mg/kg,5-HT1A receptors [6]; [7],6.8 ± 7.1%
same,receptor occupancy at 10 mg/kg,5-HT1A receptors [6]; [7],18.8 ± 6%
same,receptor occupancy at 30 mg/kg,5-HT1A receptors [6]; [7],20.3 ± 4.1%
same,receptor occupancy at 100 mg/kg,5-HT1A receptors [6]; [7],17.8 ± 4.9%
same,receptor occupancy at 1 mg/kg,5-HT1A receptors [6]; [8],8.5 ± 7.6%
same,receptor occupancy at 3 mg/kg,5-HT1A receptors [6]; [8],13.2 ± 6.1%
same,receptor occupancy at 10 mg/kg,5-HT1A receptors [6]; [8],30.6 ± 6.4%
same,receptor occupancy at 30 mg/kg,5-HT1A receptors [6]; [8],46.3 ± 6.9%
same,receptor occupancy at 100 mg/kg,5-HT1A receptors [6]; [8],48.2 ± 3.3%
same,receptor occupancy at 3 mg/kg,"5-HT1A receptors [6]; 3 mg/kg oral, PET, read-out: Difference in occupancy between hippocampus and raphe nucleus",~100%
